This is an account of results in PubChem BioAssay (NCI).

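Growth conditions: 96-well plates. Treatment: test compound, 48 hours, 5 concentrations. Analysis: linear interpolation between bracketing concentrations; unreached endpoints set to highest concentration. TGI denotes the concentration required for complete inhibition of growth.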 Some results are limits rather than exact numbers.

Some test systems named below: DU-145 prostate; OVCAR-4 ovarian; SN12C renal; HOP-62 NSCLC; UACC-62 melanoma; SF-268 CNS; SNB-19 CNS; MDA-MB-231 breast; NCI/ADR-RES ovarian; MCF7 breast.
Common to all, as to experiment: NCI tumour cell line growth inhibition, 48 h

With `CN(c1ccc(Cl)cc1)S(=O)(=O)c1ccc([N+](=O)[O-])cc1`, the TGI in the assay on DU-145 prostate, in the assay on OVCAR-4 ovarian, in the assay on SN12C renal, with HOP-62 NSCLC, in the assay with UACC-62 melanoma and in the assay with SF-268 CNS was more than 100 µM each time. Besides, the TGI in the assay with SNB-19 CNS, in the assay with MDA-MB-231 breast, in the assay with NCI/ADR-RES ovarian and with MCF7 breast was more than 100 µM throughout.
With `N#CSC#Cc1ccc(C#CSC#N)cc1`, the TGI came out at 28.3 µM with DU-145 prostate; 36 µM with OVCAR-4 ovarian; 34.6 µM with SN12C renal; 39.3 µM with HOP-62 NSCLC; 32.5 µM with UACC-62 melanoma; 51.7 µM with SF-268 CNS. The TGI with SNB-19 CNS was found to be 47.7 µM; in the assay on MDA-MB-231 breast it was 35.2 µM; in the assay with NCI/ADR-RES ovarian, 42.5 µM; with MCF7 breast it was 38.6 µM.
As to `O/N=C1/COC(C(F)(F)F)(C(F)(F)F)C1`, the TGI in the assay with DU-145 prostate, in the assay with OVCAR-4 ovarian, with SN12C renal, with HOP-62 NSCLC, with UACC-62 melanoma and with SF-268 CNS was more than 100 µM in each case. The TGI in the assay with SNB-19 CNS, in the assay with MDA-MB-231 breast, with NCI/ADR-RES ovarian and in the assay with MCF7 breast was more than 100 µM in each case.
For `O=[N+]([O-])c1ccc(Cl)c(C=NC23CC4CC(CC(C4)C2)C3)c1`, the TGI in the assay with DU-145 prostate, in the assay with OVCAR-4 ovarian, with SN12C renal, with HOP-62 NSCLC, with UACC-62 melanoma and in the assay on SF-268 CNS was more than 10 µM in each case. For the same compound, the TGI in the assay on SNB-19 CNS, with MDA-MB-231 breast, with NCI/ADR-RES ovarian and in the assay on MCF7 breast was more than 10 µM throughout.
As to `CCN(CC)c1c(N(CC)CC)c(=O)c1=O`, the TGI in the assay on DU-145 prostate was 23.3 µM; in the assay on OVCAR-4 ovarian, 46.3 µM; with SN12C renal, 24 µM; with HOP-62 NSCLC, more than 77.3 µM; with UACC-62 melanoma, 45.7 µM; in the assay with SF-268 CNS it was more than 77 µM. The TGI with SNB-19 CNS was more than 89.6 µM; in the assay on MDA-MB-231 breast it was 15.8 µM; with NCI/ADR-RES ovarian it was 61.2 µM; with MCF7 breast, 29.5 µM.
As to `CCSc1n/c(=C\c2ccco2)c2nnnn12`, the TGI in the assay with DU-145 prostate, in the assay with OVCAR-4 ovarian, with SN12C renal, in the assay with HOP-62 NSCLC, with UACC-62 melanoma and with SF-268 CNS was more than 100 µM each time. Besides, the TGI in the assay on SNB-19 CNS, with MDA-MB-231 breast, in the assay with NCI/ADR-RES ovarian and with MCF7 breast was more than 100 µM throughout.
Turning to `O=[N+]([O-])c1ccc(/C=N/n2c(CO)nc3ccccc32)o1`, the TGI was 13.9 µM with DU-145 prostate; 21.8 µM in the assay with OVCAR-4 ovarian; 18.1 µM in the assay on SN12C renal; 28.7 µM in the assay on HOP-62 NSCLC; 21.9 µM with UACC-62 melanoma; 22.7 µM with SF-268 CNS. Also, the TGI in the assay with SNB-19 CNS was determined as 30.7 µM; with MDA-MB-231 breast, 20.6 µM; with NCI/ADR-RES ovarian, 74.7 µM; in the assay on MCF7 breast it was 15.2 µM.
For the compound `CCC1(CC)SCc2nc3ccccc3n21`, the TGI in the assay on DU-145 prostate, with OVCAR-4 ovarian, with SN12C renal, with HOP-62 NSCLC, in the assay with UACC-62 melanoma and in the assay on SF-268 CNS was more than 100 µM each time. For the same compound, the TGI with SNB-19 CNS is more than 100 µM; in the assay on MDA-MB-231 breast, 90.5 µM; in the assay with NCI/ADR-RES ovarian it was 86 µM; in the assay with MCF7 breast, 93.7 µM.
On to `NC(Cc1cccc([N+](=O)[O-])c1)C(=O)O` (stereo not given), for which the TGI in the assay on DU-145 prostate, in the assay with OVCAR-4 ovarian, in the assay with SN12C renal, in the assay with HOP-62 NSCLC, with UACC-62 melanoma and with SF-268 CNS was more than 100 µM each time. The TGI in the assay with SNB-19 CNS, with MDA-MB-231 breast, in the assay with NCI/ADR-RES ovarian and in the assay with MCF7 breast was more than 100 µM each time.
For the compound `COc1ccc(CC2c3cc(Oc4cc(CC5c6cc(OC)c(OC)cc6CCN5C)ccc4O)c(OC)cc3CCN2C)cc1` (stereo not given), the TGI in the assay with DU-145 prostate was 6.34 µM; in the assay on OVCAR-4 ovarian, 8.77 µM; in the assay with SN12C renal, 14.8 µM; with HOP-62 NSCLC, 14.9 µM; with UACC-62 melanoma it was 15.6 µM; in the assay with SF-268 CNS, 17 µM. Further, the TGI with SNB-19 CNS is 12.5 µM; in the assay on MDA-MB-231 breast it was 14.8 µM; in the assay with NCI/ADR-RES ovarian, 14.4 µM; in the assay with MCF7 breast it was 12.2 µM.
For `COc1ccc(C(C)NNC(=O)c2ccncc2)c(OC)c1` (stereo not given), the TGI in the assay with DU-145 prostate, in the assay with OVCAR-4 ovarian, in the assay with SN12C renal, with HOP-62 NSCLC, in the assay with UACC-62 melanoma and in the assay with SF-268 CNS was more than 100 µM throughout. Besides, the TGI with SNB-19 CNS, with MDA-MB-231 breast, in the assay on NCI/ADR-RES ovarian and with MCF7 breast was more than 100 µM each time.
On to `O=C1N=c2ccccc2=C1c1c(O)[nH]c2ccccc12`, for which the TGI in the assay with DU-145 prostate is 54.6 µM; in the assay on OVCAR-4 ovarian it was 29.9 µM; in the assay with SN12C renal, 51.5 µM; in the assay on HOP-62 NSCLC, more than 100 µM; in the assay with UACC-62 melanoma, 39.2 µM; in the assay with SF-268 CNS, more than 100 µM. For the same compound, the TGI was 67.4 µM in the assay on SNB-19 CNS, more than 100 µM with MDA-MB-231 breast, 48.2 µM in the assay on NCI/ADR-RES ovarian and 25.3 µM in the assay with MCF7 breast.
Turning to `c1ccc2sc(C3(N4CCCC4)CCCCCC3)cc2c1`, the TGI was more than 100 µM in the assay with DU-145 prostate; 31.8 µM in the assay with OVCAR-4 ovarian; 29.2 µM with SN12C renal; 36.1 µM in the assay with HOP-62 NSCLC; 31.1 µM in the assay on UACC-62 melanoma; 35.9 µM with SF-268 CNS. In addition, the TGI in the assay with SNB-19 CNS is 29.9 µM; in the assay on MDA-MB-231 breast it was 31 µM; with NCI/ADR-RES ovarian, 44.4 µM; in the assay on MCF7 breast, 33.2 µM.
